Source: US20240307299A1, “SELF-EMULSIFYING DRUG DELIVERY (SEDDS) FOR OPHTHALMIC DRUG DELIVERY” (priority 2015, published 2024)
Like-named read-outs stand apart in the source and are kept apart here.

System: New Zealand White female rabbits
Assay type: in vivo
Method: The ocular tolerability of the various pharmaceutical-grade excipients used in our formulations was evaluated in vivo using New Zealand White female rabbits. A total of ten test groups with three rabbits each were used to test the materials listed below in Table 16. Dosing in each group was done by instilling one drop of material at the lowest concentration into the left eye of the first rabbit. If not tolerated, dosing was stopped. If tolerated, one drop of the same concentration was instilled into the left eye of the second rabbit and then again for the third rabbit. If a concentration was tolerated by 3 rabbits, dosing continued in the same pattern with the next higher concentration, if applicable.
Sample compositions, specifically, the vehicle used to dilute the materials tested, are listed in the next table (Table 17).

| Compound | Concentration at which the not tolerated finding was seen (lowest concentration not tolerated) [%] | Concentration not tolerated (topical ocular, rabbits) [%] | Concentration at which the not tolerated finding was seen (rabbit, in vivo) [%] | Maximum Tolerated Concentration (rabbit, in vivo) [% w/w] | Reason Not Tolerated: Ocular discomfort (score) (rabbit, in vivo) |
| --- | --- | --- | --- | --- | --- |
| CC(O)CO (centres unmarked) [Propylene Glycol] | 10 | 10 |  |  |  |
| PEG 400 |  |  | 20 | 10 | +3, 1 Ocular discomfort seen at |
| PEG (polyethylene glycol) 300 [PEG 300] |  |  | 10 |  |  |
| polyoxyethylene sorbitan monooleate [PS80] |  |  | 40 | 30 |  |
